pEC50, pIC50: −log10 of the molar value.

One test deals with T1, Human 5-HT7a receptor (Homo sapiens, UniProt P34969).
T1 construct: host or cells: CHO-K1 (h5HT7-C1 cells)
T1 sequence (P34969 1-445 isoform P34969-2): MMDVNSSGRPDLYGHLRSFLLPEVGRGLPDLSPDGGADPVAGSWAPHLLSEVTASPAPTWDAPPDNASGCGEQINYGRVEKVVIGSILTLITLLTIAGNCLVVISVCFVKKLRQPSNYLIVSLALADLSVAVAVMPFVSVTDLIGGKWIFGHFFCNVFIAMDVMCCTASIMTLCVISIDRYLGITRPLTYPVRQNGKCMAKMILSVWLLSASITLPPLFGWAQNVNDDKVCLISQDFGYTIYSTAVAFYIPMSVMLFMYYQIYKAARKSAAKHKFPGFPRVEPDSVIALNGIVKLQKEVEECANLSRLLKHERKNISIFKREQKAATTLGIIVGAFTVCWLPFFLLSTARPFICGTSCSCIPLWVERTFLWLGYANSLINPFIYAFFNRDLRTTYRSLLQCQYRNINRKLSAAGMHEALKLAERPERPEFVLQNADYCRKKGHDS
Kind of test: Receptor binding assay (RBA) using 5HT-7 expression cells.
Settings: not given
The method, then: Receptor Binding Assay (RBA) Using 5HT-7 Expression Cells
Human 5-HT7a receptor expression CHO—K1 cells (Euroscreen; h5HT7-C1 cells, No. ES-317-C) were cultured in an incubator (CO2: 5%) at 37° C., using Ham's F-12 culture medium containing 400 μg/ml G418, 100 U/ml penicillin, 100 μg/ml streptomycin, and 10% fetal bovine serum. After removal of the culture medium, the cells were washed with phosphate-buffered saline (PBS(−)) free of Ca^2+ and Mg^2+, and then peeled away from a petri dish using HMEE buffer (20 mM HEPES-KOH (pH7.4), 1 mM EDTA, 1 mM EGTA, 2 mM MgCl2). The cells thus collected were homogenized on ice using a Teflon homogenizer, centrifuged at 1,500×g for 5 minutes at 4° C., and the resultant supernatant liquid was then recovered. The supernatant liquid was further centrifuged at 12,000×g for 30 minutes at 4° C. The resultant precipitate was suspended in a HMEE buffer and the resultant suspension was dispensed and flash-frozen in liquid nitrogen. Thus, the frozen product was maintained at −80° C. and melted at room temperature when used in practice. In a 96-well polystyrene round-bottom plate (Falcon, No. 351190), a membrane preparation, the test compound, and 2-[^125I]-(+)-iodo-lysergic acid diethylamide (Perkin Elmer Life Science, No. NEX199) were reacted at room temperature for 3 hours in 50 μL of a binding buffer (50 mM HEPES-NaOH (pH7.4), 1 mM CaCl2, 5 mM MgCl2, 0.5% BSA) in each well. After completion of the reaction, the mixture was trapped by suction into a 96-well GF/B Unifilter plate (Perkin Elmer Life Science, No. 6005177), 50 μL of 0.05% polyethyleneimine being previously added to each well. Each well of the above-mentioned Unifilter plate was washed with about 200 μL of a washing buffer (50 mM HEPES-NaOH (pH7.4), 1 mM CaCl2, 5 mM MgCl2, 0.5 M NaCl, 0.05% Tween-20) three times, and dried overnight. Then, 30 μL of Microscint (Packard, No. NR6013611) was added to each well. The amount of bound 2-[^125I]-(+)-iodo-lysergic acid diethylamide was determined using Top Counter (Packard). The count obtained when 100 μM of crozapine was used as the test compound was fixed at 0%, while the count obtained when no compound was added was fixed at 100%. The binding ratios of 2-[^125I]-(+)-iodo-lysergic acid diethylamide obtained at varied concentrations of the compound were expressed by percentage (%), and the relationship between the concentration of each compound and the binding ratio (%) was approximated to a sigmoid curve. A concentration of the compound corresponding to the binding ratio 50% of 2-[^125I]-(+)-iodo-lysergic acid diethylamide was defined as the value of IC50.
Broadly, the pIC50 is the negative decadic logarithm of the IC50, by convention in mol/L. A low value points to a high IC50. Compound `COc1ccccc1C(=C1CCN(C)CC1)c1ccc(Cl)c(Cl)c1` [Example 54] showed a negative logarithm of the IC50 (pIC50) of 7.50. On to `CCN1CCC(=C(c2cccc(Cl)c2)c2cc(OC)ccc2OC)CC1` [Example 58], for which the pIC50 was 7.80.

Staying with this test, now noted: displacement of 2-[125I]-(+)-iodo-lysergic acid diethylamide, membranes of human 5-HT7a CHO-K1 cells; read-out: pIC50 (converted).
For the compound `COc1ccccc1C(=C1CCN(C)CC1)c1ccc(Cl)s1` [Example 55], the IC50 is 39.8 nM. In the case of `COc1ccccc1C(=C1CCN(C)CC1)c1ccc(C)s1` [Example 56], the IC50 was 39.8 nM. On the same count and under the same terms, the same measure for `COc1ccccc1C(=C1CCN(CCNS(=O)(=O)c2cc(Cl)ccc2Cl)CC1)c1cccc(Cl)c1` [Example 49]: 10 nM; for `COc1ccccc1C(=C1CCN(CCCNC(=O)OC(C)(C)C)CC1)c1cccc(Cl)c1` [Example 36]: 100 nM; for `CCCCN1CCC(=C(c2cccc(Cl)c2)c2cc(OC)ccc2OC)CC1` [Example 60]: 100 nM. Take `COc1ccc(C)cc1C(=C1CCN(C)CC1)c1cccc(Cl)c1` [Example 57]: the IC50 is 31.6 nM. Consider `COc1ccccc1C(=C1CCN(C)CC1)c1cccc(Cl)c1` [Example 1], for which the IC50 was 39.8 nM. Take `COc1ccc(OC)c(C(=C2CCNCC2)c2cccc(Cl)c2)c1` [Example 4]: the IC50 is 20 nM. The same measure, in the same setting: the same measure for `CCCN1CCC(=C(c2cccc(Cl)c2)c2ccccc2OC)CC1` [Example 7]: 31.6 nM.

The target of a further test is T2, Human 5HT-7 (Homo sapiens, UniProt P34969).
T2 construct: host or cells: CHO-K1 (h5HT7-C2 cells)
T2 sequence (P34969 1-445 isoform P34969-2): as above
Kind of test: Evaluation of 5HT-7 agonist activity using 5HT-7 expression cells (cAMP). It counts as cell-based. Conditions: cAMP in h5HT7-C2 CHO-K1 cells; 10 μM serotonin = 100%. The method, then:
Evaluation of 5HT-7 Agonist Activity Using 5HT-7 Expression Cells
Then, the cAMP concentration was determined using a cAMP EIA kit (RPN225, Amersham) by the method in conformity of the attached protocol (Protocol 2. Acetylation EIA Procedure). […] The cAMP concentrations obtained with varied concentrations of the compound were expressed by percentage (%), and the relationship between the concentration of each compound and the cAMP (%) was approximated to a sigmoid curve. A concentration of the compound corresponding to the cAMP value that is a half the maximum value (Emax) on the approximated sigmoid curve was defined as the value of EC50.
Usually pEC50 stands for the negative decadic logarithm of the EC50, by convention in mol/L. Higher therefore signals a small EC50. For the compound `COc1ccc(OC)c(C(=C2CCNCC2)c2cccc(Cl)c2)c1` [Example 4], the pEC50 is 7.06.

These data come from US7683077B2, “Piperidine derivative” (Ajinomoto Co., Inc., priority 2003, dated 2010).
